Assay results reported in US8258186B2, “Pharmaceutical for oral delivery comprising MGBG” (Pathologica, LLC, priority 2009, dated 2012).

Columns and labels:
in vivo = assay: in vivo; set-up: species or system beagle dogs; conditions: male, beagle, dog
Experimental: Two groups of three male beagle dogs weighing 9.0-10.7 kg and aged 8-30 months were fasted overnight before being administered the test article, MGBG, as either a single bolus intravenous dose of 1 mg/kg (Group 1) or as a single oral gavage dose of 10 mg/kg (Group 2). Dose formulation analysis verified administered dose solutions as within 17% of targeted concentrations of 1 and 10 mg/kg for Groups 1 and 2, respectively.
Blood samples (approximately 2.0 mL) were collected for plasma MGBG concentration measurement from all intravenously dosed animals prior to dosing and at approximately T=0.083 (5 min), 0.25 (15 min), 0.5 (30 min), 1, 2, 4, 8, and 24 hours after dosing. A similar procedure was used with orally dosed animals was used, except that collection took place at T=1, 2, 4, 8, 12, 24, and 36 hours after dosing. The samples were centrifuged under refrigerated conditions following completion of sample collection at each interval. The resulting plasma was separated and stored frozen at approximately −70° C. until analysis.

[1] = Multi-dose rat pharmacokinetic and tolerability study; type: in vivo, Sprague Dawley rats; conditions: for AUC / CL/F / fold increase in mean AUCall compared to Study Day 1 / AUC(0-t) / Cmax / Tmax: male, Sprague Dawley; for fold increase in mean AUCall compared to Study Day 1: 7 days
Experimental: The purpose of this study was to determine the pharmacokinetic (PK) properties and tolerability of MGBG in rats. Additionally, recovery from any toxic effects was assessed after a seven day non-dosing period.
Three per group of male Sprague Dawley (CD® MS, Charles River) aged 7-9 weeks and weighing 222.7-252.0 g were administered by oral (PO) gavage, twice daily, at 10, 20, or 30 mg/kg/dose (20, 40, or 60 mg/kg/day) for seven consecutive days. A washout period of seven days followed. Collection of approximately 200 μL of whole blood was collected from the tail vein of all animals in Groups 5, 6, and 7 were bled at six (Day 1), seven (Day 7), or one (Days 9 through 15) time point(s), respectively. Whole blood samples were collected in a lithium heparin microtainer and processed to plasma by centrifugation. Plasma was frozen at −70° C. Pharmacokinetic analyses were performed on the individual animal plasma concentration versus time data for MGBG using WinNonlin (linear trapezoidal rule for AUC calculations). Nominal dose values and sampling times were used for calculations. For Study Day 7, the reported values for MGBG concentrations at time zero were used in the calculations of AUC. Study Day 1 disposition parameters were not reported due to insufficient terminal phase data to adequately characterize these parameters.
On Study Day 7, evidence of dose-dependent dispositions for Cl/Fobs and elimination half-life were observed as mean parameter values for Cl/Fobs and elimination half-life increased and decreased, respectively, with increasing dose levels.
Based on the findings of this exploratory study, the no observable adverse effect level (NOAEL) for MGBG administered by PO gavage twice daily for seven consecutive days to male Sprague Dawley rats is 30 mg/kg/dose (60 mg/kg/day).

CC(/C=N/NC(=N)N)=N\NC(=N)N [MGBG, 1,1′[methylethanediylidene]dinitrilodiguanidine]
AUC (in vivo; iv, 1 mg/kg): 1410 ng·h/mL | Clobs (in vivo; iv, 1 mg/kg): 13.7 mL/min/kg | Cmax (in vivo; iv, 1 mg/kg): 1180 ng/mL | Tmax (in vivo; iv, 1 mg/kg): 0.083 h | VSSobs (in vivo; iv, 1 mg/kg): 14.6 L/kg | half-life (in vivo; iv, 1 mg/kg): 15.8 h | AUC (in vivo; po, 10 mg/kg): 6290 ng·h/mL | Clobs (in vivo; po, 10 mg/kg): 8.29 mL/min/kg | Cmax (in vivo; po, 10 mg/kg): 616 ng/mL | Tmax (in vivo; po, 10 mg/kg): 1 h | bioavailability (in vivo; po, 10 mg/kg): 49% | half-life (in vivo; po, 10 mg/kg): 15.5 h | increase of systemic exposure (Cmax and AUCall) with increasing dose ([1]; in vivo): slightly less than dose-proportional | hematology parameters versus control group ([1]; in vivo, 60 mg/kg/day): lower reticulocyte count and percentage | serum chemistry parameters versus control group ([1]; in vivo, 60 mg/kg/day): osmolality and electrolyte changes consistent with slight dehydration | NOAEL at 7 days ([1]; in vivo, male Sprague Dawley rats, PO gavage twice daily, seven consecutive days, read-out: no observable adverse effect level (NOAEL)): 60 mg/kg/day | systemic exposure, plasma Day 1 and Day 7 ([1]; in vivo, po): systemic exposure to the test article at all time points | AUC ([1]; in vivo, po, 20 mg/kg/day): 7930 ng·h/mL | CL/F ([1]; in vivo, po, 20 mg/kg/day): 24.3 mL/min/kg | fold increase in mean AUCall compared to Study Day 1 ([1]; in vivo, po, 20 mg/kg/day): 3.77 fold | AUC(0-t) ([1]; in vivo, po, 20 mg/kg/day, AUC0-12): 773 ng·h/mL | AUC(0-t) ([1]; in vivo, po, 20 mg/kg/day, AUC0-24): 1750 ng·h/mL | Cmax ([1]; in vivo, po, 20 mg/kg/day): 124 ng/mL | Tmax ([1]; in vivo, po, 20 mg/kg/day, Tmax): 10 h | AUC ([1]; in vivo, po, 40 mg/kg/day): 13700 ng·h/mL | CL/F ([1]; in vivo, po, 40 mg/kg/day): 28.2 mL/min/kg | fold increase in mean AUCall compared to Study Day 1 ([1]; in vivo, po, 40 mg/kg/day): 4.03 fold | AUC(0-t) ([1]; in vivo, po, 40 mg/kg/day, AUC0-12): 1380 ng·h/mL | AUC(0-t) ([1]; in vivo, po, 40 mg/kg/day, AUC0-24): 2980 ng·h/mL | Cmax ([1]; in vivo, po, 40 mg/kg/day): 175 ng/mL | Tmax ([1]; in vivo, po, 40 mg/kg/day, Tmax): 7.33 h | AUC ([1]; in vivo, po, 60 mg/kg/day): 17100 ng·h/mL | CL/F ([1]; in vivo, po, 60 mg/kg/day): 35.8 mL/min/kg | fold increase in mean AUCall compared to Study Day 1 ([1]; in vivo, po, 60 mg/kg/day): 3.68 fold | AUC(0-t) ([1]; in vivo, po, 60 mg/kg/day, AUC0-12): 2170 ng·h/mL | AUC(0-t) ([1]; in vivo, po, 60 mg/kg/day, AUC0-24): 4380 ng·h/mL | Cmax ([1]; in vivo, po, 60 mg/kg/day): 296 ng/mL | Tmax ([1]; in vivo, po, Tmax values over the dose range evaluated): 3.33 to 14 h | gross or microscopic lesions at terminal sacrifice ([1]; test article-treated animals): No gross or microscopic lesions were observed
